The source of these data is US20210015830A1, “COMPOSITION FOR INHIBITING REACTIVE OXYGEN SPECIES PRODUCTION” (SUNTORY HOLDINGS LIMITED, priority 2017, published 2021).

Data set [1] in a line: Body weight and food intake of SAMP10 mice during 12-week feeding. The following applies: AIN-93M containing 0.006% ursolic acid or 0.002% acetylursolic acid for 12 weeks. It is filed as in vivo, mouse. The method, then: (§1) As for a young (young control) group, SAMP10 mice at 8 weeks old were purchased, acclimated for 7 days, and received AIN-93M (manufactured by CLEA Japan Inc.) as a base food for 12 weeks, and then the brain function was evaluated at 4 months old (N=15). As for an elderly group, mice at 14 weeks old were purchased, acclimated until 8 months old, randomly divided into 2 groups, received AIN-93M or AIN-93M containing 0.02% Aronia extract for 12 weeks, and then the brain function was evaluated at 11 months old (an elderly control group (N=26), an elderly Aronia received group (N=18)). The food was changed once a week, and the food intake and the body weight were measured once a week.
The brain function ameliorating effects of ursolic acid and acetylursolic acid contained in Aronia were compared in terms of the recovery of light room latency. SAMP10 mice at 14 weeks old were purchased, acclimated until 8 months old, then randomly divided into two groups, and received AIN-93M containing 0.006% ursolic acid or AIN-93M containing 0.002% acetylursolic acid for 12 weeks. When the mice reached 11 months old, a brain function was evaluated according to the method of Reference Example 1 (0.006% ursolic acid received group (N=8), and 0.002% acetylursolic acid received group (N=10)).

The target of the next data set is T1, NADPH oxidase (NOX) (Homo sapiens, UniProt P04839).
T1 construct: HL-60 cells were differentiated into NOX-expressing granulocytes; endogenous in cells; host or cells: HL-60 cells differentiated into granulocytes with 1% DMSO
T1 sequence (P04839 1-570): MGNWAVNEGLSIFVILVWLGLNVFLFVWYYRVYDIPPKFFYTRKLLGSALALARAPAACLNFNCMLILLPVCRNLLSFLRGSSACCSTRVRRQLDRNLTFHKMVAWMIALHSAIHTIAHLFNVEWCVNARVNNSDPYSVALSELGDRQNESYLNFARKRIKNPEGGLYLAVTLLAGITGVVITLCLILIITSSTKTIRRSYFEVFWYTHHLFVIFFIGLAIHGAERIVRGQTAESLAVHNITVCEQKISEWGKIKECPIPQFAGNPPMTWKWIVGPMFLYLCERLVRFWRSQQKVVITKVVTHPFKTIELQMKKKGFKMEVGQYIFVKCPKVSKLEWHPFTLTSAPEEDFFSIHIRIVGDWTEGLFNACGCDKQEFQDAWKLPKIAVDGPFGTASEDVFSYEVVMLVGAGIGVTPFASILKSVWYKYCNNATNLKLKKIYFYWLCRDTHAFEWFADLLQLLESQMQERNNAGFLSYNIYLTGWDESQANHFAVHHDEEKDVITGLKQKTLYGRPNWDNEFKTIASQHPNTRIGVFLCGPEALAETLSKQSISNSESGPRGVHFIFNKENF
T1 sequence (P13498 1-195 partner): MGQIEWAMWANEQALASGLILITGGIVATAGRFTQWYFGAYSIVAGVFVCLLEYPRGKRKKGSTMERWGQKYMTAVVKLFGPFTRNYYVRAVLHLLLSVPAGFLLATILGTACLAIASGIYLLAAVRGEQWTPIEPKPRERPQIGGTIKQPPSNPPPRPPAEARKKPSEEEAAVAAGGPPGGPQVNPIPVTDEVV
The experiment in a line: Measurement of NOX inhibitory activity in differentiated HL-60 cells (PMA-activated superoxide production, WST-1 formazan absorbance at 450 nm). In kind it is cell-based. The following applies: for Inhibitory activity ratio: 3-acetyl triterpenic acid versus the triterpenic acid without acetyl group, formula (i). An excerpt:
It is known that undifferentiated human myeloid leukemia HL-60 cells have an ability to proliferate, but differentiate into mature granulocytes by adding DMSO (dimethyl sulfoxide), retinoic acid, or the like and lose their proliferative ability. Mature HL-60 cells express NOX that serves as an indicator of differentiation. NOX can be used as an indicator for evaluating NOX inhibitory activity.
HL-60 cells were differentiated into NOX-expressing granulocytes by the following method.
Then, the suspension was dispensed into cell culture dishes (100 mm) so as to be 15 mL each, and the cells were cultured in a CO2 incubator (37° C.) for 3 days.
The differentiated HL-60 cells were used to measure NOX inhibitory activity as will be described below.
WST-1 (2-(4-iodophenyl)-3-(4-nitrophenyl)-5-(2,4-disulfophenyl)-2H-tetrazolium, monosodium salt) was dissolved in a D-MEM medium so as to be 0.8 mg/mL, and thus a WST-1 solution was prepared. WST-1 reacts with superoxide and produces yellow formazan. Yellow formazan absorbs a wavelength of 450 nm, and, therefore, the amount of yellow formazan can be measured by measuring absorbance at a wavelength of 450 nm. Also, the amount of yellow formazan produced is proportional to the amount of superoxide during the reaction, and, therefore, the amount of superoxide can be measured by measuring the amount of yellow formazan produced.
PMA (phorbol 12-myristate 13-acetate) was dissolved in a D-MEM medium so as to be 4 μM, and thus a PMA solution was prepared.
PMA is known to function to activate NOX and causes superoxide production.
The differentiated HL-60 cells were collected by centrifugation, and suspended in a D-MEM medium containing neither FBS nor phenol red so as to be 5×10^6 cells/mL.
The cell suspension was added into a 96-well microplate so as to be 25 μL per well.
Next, 25 μL of the WST-1 solution prepared as described above was added to the wells.
After adding the solutions, the cell suspensions were stirred.
Thereafter, 25 μL of the prepared PMA solution was added (a final PMA concentration in the medium being 1 μM) to activate NOX and carry out a reaction at 37° C. for 60 minutes.
Then, by measuring absorbance at a wavelength of 450 nm, the amount of yellow formazan produced and thus the amount of superoxide produced by NOX were measured.
Inhibitory activity ratio=(IC50 of triterpenic acid having acetyl group)/(IC50 of triterpenic acid without acetyl group) (i)
Based on the obtained measurement results, the IC50 (μg/mL) of fraction 1 and fraction 2 was determined.
Moreover, the inhibitory activity ratio of triterpenic acid having an acetyl group in fraction 2 to triterpenic acid without an acetyl group in fraction 1 was calculated using formula (i).

In data set [2] the test system is Senescent Accelerated Model Prone 10 (SAMP10) mouse. As to the kind of experiment: Brain function evaluation by passive avoidance test (step-through test) in senescence accelerated model. In kind it is in vivo. The following applies: SAMP10 mice, AIN-93M containing 0.006% ursolic acid or 0.002% acetylursolic acid for 12 weeks, evaluated at 11 months old. As to the method: The effect of inhibiting a decline in brain function of the Aronia extract was evaluated using the extract powder obtained in Example 2. The Senescent Accelerated Model Prone 10 (SAMP10) mouse, which is one of the senescence accelerated models, is known to show age-related decline in brain function at an early stage, and can be used to evaluate effects on an age-related decline in brain function. Accordingly, this animal was used to investigate the brain function ameliorating effect of the Aronia extract. A series of animal experiments were carried out based on a plan that complies with the animal welfare management law and other relevant laws and that is approved by the head of an organization after being reviewed by an institutional animal experiment committee.
as §1
A brain function was evaluated using a passive avoidance test (a step-through test). […]
Mice were placed in a light room (9 cm width, 11.5 cm depth, 15 cm height) of a step-through passive avoidance response tester (manufactured by Muromachi Kikai Co., Ltd.), then a door to a dark room (14 cm width, 17.5 cm depth, 15 cm height) was opened 30 seconds later, and the time until the mice entered the dark room (the light room latency) was measured. […]
A retention trial was performed the day after the acquisition trial. The same operation as the acquisition trial was performed on the mice, and the latency in light room was measured. […] The latency was measured up to 300 seconds, and evaluations were made such that the longer the latency of the retention trial is, the higher the memory function is.
The brain function ameliorating effects of ursolic acid and acetylursolic acid contained in Aronia were compared in terms of the recovery of light room latency. […] When the mice reached 11 months old, a brain function was evaluated according to the method of Reference Example 1 (0.006% ursolic acid received group (N=8), and 0.002% acetylursolic acid received group (N=10)).

Setting [3] is: standard products, differentiated HL-60 cells, 1 μM PMA, 37° C., 60 minutes, read-out: IC50.

As usually defined, the IC50 is the midpoint of a concentration-inhibition curve.

Like-named read-outs stand apart in the source and are kept apart here.

For `C[C@H]1[C@H](C)CC[C@]2(C(=O)O)CC[C@]3(C)C(=CC[C@@H]4[C@@]5(C)CC[C@H](O)C(C)(C)[C@@H]5CC[C@]43C)[C@H]12` [Ursolic acid, reference compound], in data set [1], the “body weight and food intake” value is “no difference”. The half-inhibitory concentration (IC50) at NADPH oxidase (NOX) (setting [3]) stood at 44 µM. Also, in data set [2], the “latency in light room, acquisition trial” value is “no difference between groups” and the “latency in light room, retention trial” value is “act to inhibit an age-related decline in brain function”.
For the compound `CC(=O)O[C@H]1CC[C@]2(C)[C@H]3CC=C4[C@@H]5CC(C)(C)CC[C@]5(C(=O)O)CC[C@@]4(C)[C@]3(C)CC[C@H]2C1(C)C` [3-Acetyloleanolic acid], at NADPH oxidase (NOX), inhibition was half-maximal at 10 µM (IC50) and the Inhibitory activity ratio was determined as 4.4 times.
Consider `CC(=O)O[C@H]1CC[C@]2(C)[C@H]3CC=C4[C@@H]5[C@@H](C)[C@H](C)CC[C@]5(C(=O)O)CC[C@@]4(C)[C@]3(C)CC[C@H]2C1(C)C` [3-Acetylursolic acid], for which, on NADPH oxidase (NOX), the Inhibitory activity ratio is listed as 7.3 times. Moreover, the IC50 on NADPH oxidase (NOX) (setting [3]) stood at 6 µM. Moreover, in data set [2], the “latency in light room, acquisition trial” value is “no difference between groups” and the “latency in light room, retention trial” value is on record as “stronger effect on ameliorating brain function than ursolic acid”.
